Measured values from patent publication US20070093460A1, “Methods of using selective 11beta-HSD inhibitors to treat gluocorticoid associated states” (priority 2005, published 2007).
“Also recorded” adds a separate entry of the source.

Legend:
[1] = molecular target: T1, 11β-HSD2 (Ovis aries, UniProt P50168); assay: 11β-HSD2 enzyme activity in sheep kidney microsomes; assay type: biochemical
T1 construct: incubating sheep kidney microsomal fraction (6.5 μg protein) with 50 nM corticosterone; from tissue; host or cells: sheep kidney microsomal fraction
T1 sequence (P50168 1-427): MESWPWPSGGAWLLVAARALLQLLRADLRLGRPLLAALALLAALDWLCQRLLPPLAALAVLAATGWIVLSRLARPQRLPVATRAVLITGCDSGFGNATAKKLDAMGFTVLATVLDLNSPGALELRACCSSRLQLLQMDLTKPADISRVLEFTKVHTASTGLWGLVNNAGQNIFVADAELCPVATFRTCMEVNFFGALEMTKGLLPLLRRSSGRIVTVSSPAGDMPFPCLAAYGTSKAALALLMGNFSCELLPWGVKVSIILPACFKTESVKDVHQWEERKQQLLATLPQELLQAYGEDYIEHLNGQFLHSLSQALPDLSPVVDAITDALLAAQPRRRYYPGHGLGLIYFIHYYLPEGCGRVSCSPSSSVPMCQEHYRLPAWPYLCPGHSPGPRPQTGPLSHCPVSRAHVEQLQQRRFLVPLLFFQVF
Excerpt: The enzymatic reaction was termninated by addition of methanol and synthesis of 11-dehydro-corticosterone was quantitated by HPLC as described above.

[2] = molecular target: 11β-HSD1 Reductase (Rattus norvegicus, UniProt P16232); assay: 11β-HSD1 reductase assay in rat Leydig cell homogenates; conditions: read-out: Leydig Cell 11β-HSD1 Reductase [S] = 600 nM; rat Leydig cell homogenates, 600 nM 11-dehydro-corticosterone; progesterone and androgen derivatives;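 also: rat Leydig cell homogenate incubated 20 min at 37 °C, pH 7.4, with tritiated 11-dehydro-corticosterone and 3 mM NADPH, product measured by HPLC, inhibition from triplicate dose–response curves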
Protocol: (§1) Each enzyme reaction (described below) was stopped by adding 750 μL MeOH. After centrifugation, an aliquot of supernatant was analyzed by HPLC using a DuPont Zorbax C8 column.
(§2) 11β-HSD1 dehydrogenase was assayed by incubating homogenates (13,000 cells equivalent) with 600 nM [^3H]-B (0.5 μCi) in the presence of 3 mM NADP, 50 mM Tris-HCl; pH 8.4 at 37° C. for 10 minutes in a total volume of 250 μL. 11β-HSD1 reductase was assayed by incubating homogenates (52,000 cells equivalent) with 600 nM [^3H]-11-dehydro-corticosterone in presence of 3 mM NADPH, 50 mM Tris-HCl; pH 7.4 at 37° C. for 20 minutes in a total volume of 250 μL.
(§3) Each concentration was tested in triplicate and the dose response curve, showing percentage inhibition versus log concentration of steroid was plotted. The data fitted a log-linear straight line.

[3] = molecular target: 11β-HSD1 Dehydrogenase (Rattus norvegicus, UniProt P16232); assay: 11β-HSD1 dehydrogenase assay in rat Leydig cell homogenates; assay type: biochemical; parameters: Freshly prepared rat Leydig cell homogenates were chosen since they provide a rich and reliable source of both 11β-HSD1 dehydrogenase and reductase; from tissue; host or cells: rat testicular Leydig cells, homogenate;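 also: tritiated corticosterone conversion by 11β-HSD1 dehydrogenase in Leydig homogenates with 3 mM NADP at pH 8.4, 37 °C for 10 min, products resolved by HPLC, inhibition relative to uninhibited enzyme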
Protocol: as §1, §2, §3

[4] = test system: normotensive SD rats; conditions: infused into normotensive SD rats; cited from earlier work

Chain of 11β-HSD1 Dehydrogenase (P16232 whole entry, the tested form may be a part): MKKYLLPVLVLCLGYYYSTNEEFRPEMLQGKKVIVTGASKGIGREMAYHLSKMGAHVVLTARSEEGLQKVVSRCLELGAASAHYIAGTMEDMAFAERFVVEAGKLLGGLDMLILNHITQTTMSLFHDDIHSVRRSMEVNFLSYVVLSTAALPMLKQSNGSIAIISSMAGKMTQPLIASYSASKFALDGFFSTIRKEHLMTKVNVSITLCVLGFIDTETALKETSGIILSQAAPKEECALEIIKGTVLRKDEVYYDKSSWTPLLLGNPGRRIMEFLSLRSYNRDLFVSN
Chain of 11β-HSD1 Reductase (P16232 whole entry): as the sequence (P16232 whole entry, the tested form may be a part) above

## CC(=O)[C@H]1CC[C@H]2[C@@H]3CC[C@H]4C[C@H](O)CC[C@]4(C)[C@H]3[C@@H](O)C[C@]12C [11β-OH-allopregnanolone, 5α-Pregnan-3α,11β-diol-2O-one]
[1]; sheep kidney microsomes, corticosterone substrate, progesterone and androgen derivatives, read-out: Sheep kidney 11β-HSD2 [S] = 50 nM
  IC50: 120 nM
[1]; summary of the screening
  inhibitors of 11β-HSD2 (summary in words): potent inhibitors; also recorded: high potency
[2]
  IC50: > 100000 nM
[3]; rat Leydig cell homogenates, 600 nM corticosterone, progesterone and androgen derivatives, read-out: Leydig Cell 11β-HSDl Dehydrogenase [S] = 600 nM
  IC50: 3000 nM
[3]; summary of the screening
  inhibitors of 11β-HSD1 dehydrogenase (summary in words): potent inhibitors; also recorded: high potency
[4]
  blood pressure: increased BP
